{
  "source": "paper PMC5493638",
  "about": "“Adiponectin is an endogenous anti-fibrotic mediator and therapeutic target” (Scientific Reports, 2017)",
  "molecules": {"B1": {"name": "adiponectin: 30 kDa secreted adipokine abundant in the circulation (protein, UniProt Q15848 19-244, looked up)", "Adiponectin": "ETTTQGPGVLLPLPKGACTGWMAGIPGHPGHNGAPGRDGRDGTPGEKGEKGDPGLIGPKGDIGETGVPGAEGPRGFPGIQGRKGEPGEGAYVYRSAFSVGLETYVTIPNMPIRFTKIFYNQQNHYDGSTGKFHCNIPGLYYFAYHITVYMKDVKVSLFKKDKAMLFTYDQYQENNVDQASGSVLLHLEVGDQVWLQVYGEGERNGLYADNDNDSTFTGFLLYHDTN"}},
  "key": {"[1]": {"test_system": "AMP-activated protein kinase (AMPK)", "details": "cited from earlier work", "from_the_text": "(§1) An alternate potential strategy is to mimic adiponectin biological activity using small molecules."}, "[2]": {"test_system": "C57BL6/J mice", "experiment": "Bleomycin-induced skin fibrosis in mice", "type": "in vivo, mouse", "details": "mice treated with ADP27, Supplementary Fig. 9a,b", "from_the_text": "Bleomycin (BLM) or phosphate buffered saline (PBS) was given by daily subcutaneous (s.c.) injection for 14 consecutive days[55]. In some experiments, mice were given a single s.c. injection of adenovirus expressing constitutively-active TGF-ß1 (TGFß1^223/225 3x10^9 PFU/ml) or beta-galactosidase (5x10^9 PFU/ml)[56]. Peritoneal fibrosis was induced by i.p. injections of 0.1% chlorhexidine gluconate (CG; Wako Pure Chemical Industries, Osaka, Japan) dissolved in 15% ethanol/PBS given on alternate days for 21 days[35]. Synthetic peptides targeting AdipoR (ADP355 or ADP27)[37] or vehicle (PBS) at the indicated concentrations were administered by daily i.p. injection for 14 or 24 days. Each experimental group consisted of 4–8 mice, and experiments were repeated at least two times with consistent results. At the end of the experiments, mice were sacrificed and blood and tissue were collected for analysis.\nHarvested skin or parietal peritoneal membrane samples were fixed in PFA, embedded in paraffin and 4 μm thick sections were stained with hematoxylin and eosin (H&E). Collagen deposition and organization were assessed using Masson’s Trichrome staining. Thickness of the dermis, dWAT or peritoneal membrane were determined at five randomly selected locations/slide using ImageJ software.\nCollagen content of lesional skin was determined by measuring the hydroxyproline content in 6-mm punch biopsy samples (BioVision, Milpitas, CA) (16). Serum levels of adiponectin were determined by ELISA which measures all adiponectin isoforms (Millipore; #EZMADP-60K)[9].\nRNA was isolated from skin samples using RNAeasy Fibrous Tissue Mini kit (Qiagen, Valencia, CA), or from fibroblast cultures, using the RNeasy Plus mini kit (Qiagen), and processed for qPCR as described. mRNA levels were normalized to the levels of 18 S RNA or GAPDH, and the relative amounts were calculated using the 2^−ΔΔCt method."}, "[3]": {"details": "cited from earlier work", "from_the_text": "as §1"}},
  "data": [
    {"molecule": "NC(=O)c1ncn([C@@H]2O[C@H](CO)[C@@H](O)[C@H]2O)c1N", "note": "[AICAR]", "values": [
      {"measurement": "effect on or relative to the anti-fibrotic activities of adiponectin", "setting": "[1]", "result": "mimicked"}
    ]},
    {"molecule": "H-LYYFAYHITV-NH2 [ADP27, H-Leu-Tyr-Tyr-Phe-Ala-Tyr-His-Ile-Thr-Val-NH2]", "values": [
      {"measurement": "anti-fibrotic effects in mice compared with ADP355", "setting": "[2]", "result": "Comparable anti-fibrotic effects"}
    ]},
    {"molecule": "c1cc(-c2cnn3cc(-c4ccc(OCCN5CCCCC5)cc4)cnc23)ccn1", "note": "[Compound C]", "values": [
      {"measurement": "effect on or relative to the anti-fibrotic activities of adiponectin", "setting": "[1]", "result": "blocked"}
    ]},
    {"molecule": "B1", "values": [
      {"measurement": "half-life", "setting": "[3]", "result": "relatively short half-life"},
      {"measurement": "solubility", "setting": "[3]", "result": "extreme insolubility"}
    ]}
  ]
}
